In article PMC8043142 (Journal of medicinal chemistry, 2021):

Tests used:
[1] = tested on: HIV-1 pseudoviruses
[2] = biological target: disulfide stabilized HIV-1NL4-3 CA hexamer (Human immunodeficiency virus type 1 group M subtype B, UniProt P12493, A146C/E177C/M317A/W316A); experiment: SPR direct interaction analysis with immobilized CA hexamer; type: binding; settings: for kd: SPR, 25 °C, 1:1 binding model
[3] = Metabolic stability in human liver microsomes; settings: half-life relative to S-PF-74
[4] = enantiomerically pure compounds

Structure (SMILES)	binding to CA hexamer via SPR (in words) [2, 4]	kd [2, 4]	further results
CN(C(=O)C(Cc1ccccc1)NC(=O)Cc1n[nH]c2c(N)cccc12)c1ccc2[nH]ncc2c1 (centres unmarked) [CX17, 2-(2-(7-amino-1H-indazol-3-yl)acetamido)-N-(1H-indazol-5-yl)-N-methyl-3-phenylpropanamide]			IC50 relative to predicted and experimentally determined affinity ([1]; racemic compound, IC50 higher than affinity): approximately 5 fold
Cc1[nH]c2ccccc2c1CC(=O)NC(Cc1ccccc1)C(=O)N(C)c1ccccc1 (centres unmarked) [PF-74, reference compound]			kd ([2]; racemic compounds): 2.93 ± 0.182 × 10^−2 s^−1
Cc1[nH]c2ccccc2c1CC(=O)N[C@H](Cc1ccccc1)C(=O)N(C)c1ccc2[nH]ncc2c1 [R-CX16, (R)-N-(1H-Indazol-5-yl)-N-methyl-2-(2-(2-methyl-1H-indol-3-yl)acetamido)-3-phenylpropanamide]	little to no binding interactions		
CN(C(=O)[C@H](Cc1ccccc1)NC(=O)Cc1n[nH]c2c(N)cccc12)c1ccc2[nH]ncc2c1 [S-CX17, (S)-2-(2-(7-amino-1H-indazol-3-yl)acetamido)-N-(1H-indazol-5-yl)-N-methyl-3-phenylpropanamide]	robust binding	9.66 ± 0.145 × 10^−2 s^−1	change of antiviral potency relative to parental compound ([1]; slightly diminished potency): ~3.5 fold; Fold Increase (over S-PF-74) [3]: 204 fold
Cc1[nH]c2ccccc2c1CC(=O)N[C@@H](Cc1ccccc1)C(=O)N(C)c1ccc2[nH]ncc2c1 [S-CX16, (S)-N-(1H-Indazol-5-yl)-N-methyl-2-(2-(2-methyl-1H-indol-3-yl)acetamido)-3-phenylpropanamide]	robust binding	1.09 ± 0.043 × 10^−2 s^−1	improvement in affinity over S-PF-74 [2, 4]: > 2 fold; Fold Increase (over S-PF-74) [3]: 2.0 fold
CN(C(=O)[C@@H](Cc1ccccc1)NC(=O)Cc1n[nH]c2c(N)cccc12)c1ccc2[nH]ncc2c1 [R-CX17, (R)-2-(2-(7-amino-1H-indazol-3-yl)acetamido)-N-(1H-indazol-5-yl)-N-methyl-3-phenylpropanamide]	little to no binding interactions		
CN(C(=O)[C@H](Cc1ccccc1)NC(=O)Cc1c[nH]c2c(N)cccc12)c1ccccc1 [S-CX15, (S)-2-(2-(7-Amino-1H-indol-3-yl)acetamido)-N-methyl-N,3-diphenylpropanamide]	robust binding	6.60 ± 0.328 × 10^−2 s^−1	Fold Increase (over S-PF-74) [3]: 30.8 fold
Cc1[nH]c2ccccc2c1CC(=O)N[C@@H](Cc1ccccc1)C(=O)N(C)c1ccccc1 [S-PF-74, (S)-N-methyl-2-(2-(2-methyl-1H-indol-3-yl)acetamido)-N,3-diphenylpropanamide, reference compound]	robust binding	2.92 ± 0.111 × 10^−2 s^−1	
Cc1[nH]c2ccccc2c1CC(=O)N[C@H](Cc1ccccc1)C(=O)N(C)c1ccccc1 [R-PF-74, (R)-N-methyl-2-(2-(2-methyl-1H-indol-3-yl)acetamido)-N,3-diphenylpropanamide, reference compound]	little to no binding interactions		
Cc1[nH]c2ccccc2c1CC(=O)NC(Cc1ccccc1)C(=O)N(C)c1ccc2[nH]ncc2c1 (centres unmarked) [CX16, N-(1H-indazol-5-yl)-N-methyl-2-(2-(2-methyl-1H-indol-3-yl)acetamido)-3-phenylpropanamide]			kd ([2]; racemic compounds): 1.21 ± 0.037 × 10^−2 s^−1
CN(C(=O)[C@@H](Cc1ccccc1)NC(=O)Cc1c[nH]c2c(N)cccc12)c1ccccc1 [R-CX15, (R)-2-(2-(7-Amino-1H-indol-3-yl)acetamido)-N-methyl-N,3-diphenylpropanamide]	little to no binding interactions		
